In ChEMBL document CHEMBL1201862, “PubChem BioAssay data set” (2004) one finds IC50 data, which are given here for two compounds.

The structures appear in SMILES notation. Active and inactive are the calls of the source. Cut-off read from the data, not from the text of the source: actives have a measured IC50 and inactives only a lower limit.

In this assay the target is Envelope glycoprotein gp160 (Human immunodeficiency virus 1, UniProt Q6QLK5). The assay is described as follows: inhibitors of HIV fusion peptide binding, primary screen, biochemical, uHTS, fluorescence dequenching (AID 1986).
Sequence of Envelope glycoprotein gp160 (Q6QLK5 whole entry, the tested form may be a part): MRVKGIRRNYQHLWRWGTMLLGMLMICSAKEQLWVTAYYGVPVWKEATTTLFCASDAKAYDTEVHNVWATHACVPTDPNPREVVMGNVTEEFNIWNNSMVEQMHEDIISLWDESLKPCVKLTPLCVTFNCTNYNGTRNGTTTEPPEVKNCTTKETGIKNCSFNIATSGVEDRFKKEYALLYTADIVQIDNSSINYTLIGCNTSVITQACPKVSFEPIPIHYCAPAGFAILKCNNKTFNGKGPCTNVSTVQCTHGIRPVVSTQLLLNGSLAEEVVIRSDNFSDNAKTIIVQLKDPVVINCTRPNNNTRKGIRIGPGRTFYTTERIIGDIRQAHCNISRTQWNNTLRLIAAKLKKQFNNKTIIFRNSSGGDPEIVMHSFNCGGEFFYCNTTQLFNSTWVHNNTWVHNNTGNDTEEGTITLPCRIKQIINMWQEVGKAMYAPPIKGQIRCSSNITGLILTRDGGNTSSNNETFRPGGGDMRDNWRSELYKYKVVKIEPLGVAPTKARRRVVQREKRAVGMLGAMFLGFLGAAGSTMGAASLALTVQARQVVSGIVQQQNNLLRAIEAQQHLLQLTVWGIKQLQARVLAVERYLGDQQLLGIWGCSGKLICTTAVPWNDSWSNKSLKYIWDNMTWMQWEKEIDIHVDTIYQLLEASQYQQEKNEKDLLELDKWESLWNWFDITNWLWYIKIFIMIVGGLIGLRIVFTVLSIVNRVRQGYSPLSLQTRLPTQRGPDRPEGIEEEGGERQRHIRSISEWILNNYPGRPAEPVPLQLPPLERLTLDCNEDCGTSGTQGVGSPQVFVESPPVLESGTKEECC

Usually IC50 stands for the concentration needed to halve the response being measured. In the case of `COC(=O)c1sc(-c2ccc(C(C)(C)C)cc2)cc1NC(=O)COCC(=O)O`, the 50% inhibitory concentration (IC50) is 20.9 µM (active).
The figure for `O=C(Nc1cccc(C(F)(F)F)c1)c1cccc(NS(=O)(=O)c2ccc(O)c(C(=O)O)c2)c1` is 8.83 µM (active).
